Reference: patent US9518041B2, “(+)-5-(3,4-difluorophenyl)-5-[(3-methyl-2-oxopyridin-1(2H)-yl)methyl]imidazolidine-2,4-dione and drug containing same” (KAKEN PHARMACEUTICAL CO., LTD., priority 2013, dated 2016)
Values after ≈ are worked out from the molar mass of the structure shown.

Assays:
[1] = target: T1, human MMP-2 (Homo sapiens, UniProt P08253); experiment: MMP-2 inhibition test; assay type: biochemical; settings: read-out: Inhibitory activity (IC50, nM) MMP-2
T1 construct: purchased Calbiochem 444213
T1 sequence (P08253 110-660): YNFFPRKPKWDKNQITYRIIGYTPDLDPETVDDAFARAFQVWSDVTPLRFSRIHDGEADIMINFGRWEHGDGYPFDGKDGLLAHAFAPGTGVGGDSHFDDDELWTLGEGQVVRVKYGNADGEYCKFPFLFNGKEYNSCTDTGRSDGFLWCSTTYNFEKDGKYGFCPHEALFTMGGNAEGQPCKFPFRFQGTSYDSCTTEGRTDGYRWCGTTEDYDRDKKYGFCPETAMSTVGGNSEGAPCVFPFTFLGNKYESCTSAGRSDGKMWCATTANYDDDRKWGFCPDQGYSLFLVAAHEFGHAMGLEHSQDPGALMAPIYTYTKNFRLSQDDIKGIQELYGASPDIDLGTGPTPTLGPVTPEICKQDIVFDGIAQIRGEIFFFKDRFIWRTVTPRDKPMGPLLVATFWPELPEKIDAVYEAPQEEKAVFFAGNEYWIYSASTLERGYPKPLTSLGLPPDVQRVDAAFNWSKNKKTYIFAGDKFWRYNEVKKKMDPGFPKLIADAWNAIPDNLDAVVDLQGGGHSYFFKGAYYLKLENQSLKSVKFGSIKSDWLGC
Experimental: (§1) MMP inhibition tests can be carried out, for example, using a fluorescent synthetic substrate based on the methods described in Bickett et al. (D. Mark Bickett et al., Anal. Biochem., 1993, 212, 58-64) and Nagase et al. (H. Nagase et al., J. Biol. Chem., 1994, 269, 20952-20957). The method for each MMP inhibition test is shown below.
90 μL (5 ng) of human MMP-2 (Calbiochem #444213) was mixed with 10 μL of 10 mM APMA, and activated by reacting at 37° C. for 1 hour. 10 μL of the resultant enzyme solution was diluted to 90 μL with an assay buffer A. The mixture was added to 90 μL of a 20 μM fluorescent substrate (MOCAc((7-methoxycoumarin-4-yl)acetyl)-Pro-Leu-Gly-Leu-A2pr(Dnp)-Ala-Arg-NH2, Peptide Institute Inc., #3163-v) (SEQ ID NO: 3) prepared with an assay buffer B, and reacted at 37° C. for 5 hours. Enzyme activity was then determined by measuring with a fluorescence intensity meter (Labsystems, Fluoroskan Ascent) at an excitation wavelength of 320 nm and a measurement wavelength of 405 nm.
From the enzyme activity in the presence or the absence of the test substance, the inhibition rate was determined, and the 50% inhibitiory concentration (IC50) of the test substance was calculated.

[2] = target: T2, human MMP-17 (Homo sapiens, UniProt Q9ULZ9); experiment: MMP-17 inhibition test; assay type: biochemical; settings: read-out: Inhibitory activity (IC50, nM) MMP-17
T2 sequence (Q9ULZ9 126-300 limits assumed): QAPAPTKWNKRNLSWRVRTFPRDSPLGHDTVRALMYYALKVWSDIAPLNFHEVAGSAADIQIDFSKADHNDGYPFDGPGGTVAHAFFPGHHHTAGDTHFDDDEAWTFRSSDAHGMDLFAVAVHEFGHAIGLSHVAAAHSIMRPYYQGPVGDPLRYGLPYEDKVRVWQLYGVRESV
Experimental: as §1
90 μL (5.8 ng) of human MMP-17 (Calbiochem #475940) prepared with an assay buffer A was added to 90 μL of a 20 μM fluorescent substrate (MOCAc-Pro-Leu-Gly-Leu-A2pr(Dnp)-Ala-Arg-NH2, Peptide Institute Inc., #3163-v) (SEQ ID NO: 3) prepared with an assay buffer B, and reacted at room temperature for 5 hours. Enzyme activity was then determined by measuring with a fluorescence intensity meter (Labsystems, Fluoroskan Ascent) at an excitation wavelength of 320 nm and a measurement wavelength of 405 nm.
From the enzyme activity in the presence or the absence of the test substance, the inhibition rate was determined, and the 50% inhibitory concentration (IC50) of the test substance was calculated.

[3] = Solubility test in the 2nd fluid for the disintegration test of the Japanese Pharmacopoeia; assay type: physicochemical; settings: pH 6.8, aqueous buffer, thermodynamic from solid; pH6.8, shaken for 2 hours
Experimental: Test substances (10.0 mg) were correctly weighed, and methanol was added to adjust to 10 mL. The solution was diluted by 10 times to prepare a solution of […].
In a centrifuge tube 5.0 mg of the test substance was weighed, added with 5.0 mL of the 2nd fluid for the disintegration test of the Japanese pharmacopoeia, supersonified for 3 minutes, and shaken for 2 hours thereafter. This solution was filitered with a membrane filter (0.2 μm), 500 μL the filtrate was measured, 500 μL of acetonitrile was added, and fully stirred to obtain the sample solution.
To 250 mL of 0.2 mol/L potassium dihydrogenphosphate aqueous solution, 118 mL of 0.2 mol/L sodium hydroxide aqueous solution and water was added to adjust to 1000 mL.
Using a high performance liquid chromatography, each of the sample solution for a calibration curve and sample solution for solubility measurement is measured twice to calculate an average area for each.
Based on the average area obtained in the above mentioned method, using an equation below to calculate a solubility. Solubility in the 2nd fluid for the disintegration test of the Japanese pharmacopoeia(μg/mL)=((P×2)/S)×100
S: Average area on the sample solution for a calibration curve
P: Average area on the sample solution for solubility measurement

Cc1cccn(CC2(c3ccc(F)c(F)c3)NC(=O)NC2=O)c1=O (single isomer, unassigned; (+)) [(+)-5-(3,4-difluorophenyl)-5-[(3-methyl-2-oxopyridin-1(2H)-yl)methyl]imidazolidine-2,4-dione]
IC50 [1]: > 10000 nM
IC50 [2]: > 10000 nM
solubility at 2 h [3]: 430 µg/mL (≈ 1290 µM)
